The record followed here is patent US10058550B2, “Methods of treating heart failure” (priority 2015, dated 2018).

Molecules are shown by their SMILES.

human APJ receptor, sequence (P35414 whole entry): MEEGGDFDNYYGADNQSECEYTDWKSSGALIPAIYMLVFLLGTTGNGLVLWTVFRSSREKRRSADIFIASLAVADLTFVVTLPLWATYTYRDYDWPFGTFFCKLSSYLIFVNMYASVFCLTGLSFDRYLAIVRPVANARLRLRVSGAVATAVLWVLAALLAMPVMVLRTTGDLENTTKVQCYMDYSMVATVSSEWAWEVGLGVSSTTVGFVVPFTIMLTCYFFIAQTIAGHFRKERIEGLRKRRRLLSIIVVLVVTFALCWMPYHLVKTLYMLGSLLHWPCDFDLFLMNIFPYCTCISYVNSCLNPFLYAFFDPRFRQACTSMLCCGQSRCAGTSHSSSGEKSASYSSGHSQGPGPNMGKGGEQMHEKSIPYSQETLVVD

The test concerns the target human APJ receptor (Homo sapiens (Human), UniProt P35414). In words: biochemical. The settings on record: read-out: Activity hAPJ SPA EC50 IP. It is filed as biochemical. The method, boiled down: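 Membranes from CHO cells stably expressing cloned human APJ were incubated with WGA SPA beads in 20 mM HEPES pH 7.5, 5 mM MgCl2, 0.1% BSA, 200 mM NaCl and 3 μM GDP. Reaction started with 0.2 nM [35S]GTPγS ± ligands, 90 min at RT. EC50 obtained by non-linear regression as mean of independent experiments.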
Turning to `COc1ncnc(OC)c1-n1c(NS(=O)(=O)[C@@H](C)[C@H](OC)c2ncc(C)cn2)nnc1-c1cccc(C)n1` [Example 90.0, (1R,2S)-N-(4-(4,6-dimethoxypyrimidin-5-yl)-5-(6-methylpyridin-2-yl)-4H-1,2,4-triazol-3-yl)-1-methoxy-1-(5-methylpyrimidin-2-yl)propane-2-sulfonamide], the EC50 is 2.4 nM.
With `COc1cccc(-c2nnc(NS(=O)(=O)C(C)C)n2-c2c(OC)cccc2OC)n1` [Example 100.0, N-(4-(2,6-dimethoxyphenyl)-5-(6-methoxypyridin-2-yl)-4H-1,2,4-triazol-3-yl)propane-2-sulfonamide], the EC50 was 110 nM.
The same measure for `COc1cc(-c2nnc(NS(=O)(=O)[C@@H](C)[C@H](OC)c3ncc(C)cn3)n2-c2c(OC)cccc2OC)ccn1` [Example 101.0, (1R,2S)-N-(4-(2,6-dimethoxyphenyl)-5-(2-methoxypyridin-4-yl)-4H-1,2,4-triazol-3-yl)-1-methoxy-1-(5-methylpyrimidin-2-yl)propane-2-sulfonamide]: 7 nM.
Consider `COc1cccc(OC)c1-n1c(NS(=O)(=O)[C@@H](C)[C@H](OC)c2ncc(C)cn2)nnc1-c1ccncc1` [Example 102.0, (1R,2S)-N-(4-(2,6-dimethoxyphenyl)-5-(pyridin-4-yl)-4H-1,2,4-triazol-3-yl)-1-methoxy-1-(5-methylpyrimidin-2-yl)propane-2-sulfonamide], for which the EC50 was 18 nM.
Turning to `COc1cccc(OC)c1-n1c(NS(=O)(=O)[C@@H](C)[C@H](OC)c2ncc(C)cn2)nnc1-c1cccc(C)n1` [Example 103.0, (1R,2S)-N-(4-(2,6-dimethoxyphenyl)-5-(6-methylpyridin-2-yl)-4H-1,2,4-triazol-3-yl)-1-methoxy-1-(5-methylpyrimidin-2-yl)propane-2-sulfonamide], the EC50 came out at 0.51 nM.
For `COc1cccc(OC)c1-n1c(NS(=O)(=O)[C@@H](C)[C@H](OC)c2ncc(C)cn2)nnc1-c1ccnc(C)c1` [Example 104.0, (1R,2S)-N-(4-(2,6-dimethoxyphenyl)-5-(2-methylpyridin-4-yl)-4H-1,2,4-triazol-3-yl)-1-methoxy-1-(5-methylpyrimidin-2-yl)propane-2-sulfonamide], the EC50 was determined as 2.4 nM.
As to `CCOc1cccc(-c2nnc(NS(=O)(=O)[C@@H](C)[C@H](C)c3ncc(F)cn3)n2-c2c(OC)cccc2OC)n1` [Example 161.0, (2S,3R)-N-(4-(2,6-dimethoxyphenyl)-5-(6-ethoxy-2-pyridinyl)-4H-1,2,4-triazol-3-yl)-3-(5-fluoro-2-pyrimidinyl)-2-butanesulfonamide], the EC50 is 0.062 nM.
Regarding `COc1cccc(OC)c1-n1c(NS(=O)(=O)[C@@H](C)[C@H](C)c2ncc(F)cn2)nnc1-c1cccc(=O)[nH]1` [Example 168.0, (2S,3R)-N-(4-(2,6-dimethoxyphenyl)-5-(6-oxo-1,6-dihydro-2-pyridinyl)-4H-1,2,4-triazol-3-yl)-3-(5-fluoro-2-pyrimidinyl)-2-butanesulfonamide], the EC50 turned out to be 110 nM.
The figure for `CCOc1cccc(-c2nnc(NS(=O)(=O)[C@@H](C)[C@H](OC)c3ncc(C)cn3)n2-c2c(OC)cccc2OC)n1` [Example 172.0, (1R,2S)-N-(4-(2,6-dimethoxyphenyl)-5-(6-ethoxypyridin-2-yl)-4H-1,2,4-triazol-3-yl)-1-methoxy-1-(5-methylpyrimidin-2-yl)propane-2-sulfonamide] is 0.065 nM; for `CCc1cccc(-c2nnc(NS(=O)(=O)[C@@H](C)[C@H](OC)c3ncc(C)cn3)n2-c2c(OC)cccc2OC)n1` [Example 174.0, (1R,2S)-N-(4-(2,6-dimethoxyphenyl)-5-(6-ethylpyridin-2-yl)-4H-1,2,4-triazol-3-yl)-1-methoxy-1-(5-methylpyrimidin-2-yl)propane-2-sulfonamide] it is 0.2 nM.
